The TGI is the concentration giving total growth inhibition. Low readings indicate greater sensitivity of the cells, high ones lower sensitivity of the cells. One may read the GI50 as the concentration that inhibits growth by half.

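Dose response: 5 concentrations. Exposure: 48 h. Format: 96-well plates. Endpoint: linear interpolation; highest concentration if not reached. GI50: concentration for 50% inhibition of growth. At the TGI there is no net growth.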

Test systems include M14 melanoma; U251 CNS; SK-OV-3 ovarian; LXFL 529 NSCLC; COLO 205 colon; OVCAR-5 ovarian; HOP-62 NSCLC; M19-MEL melanoma; HOP-92 NSCLC; NCI/ADR-RES ovarian.
What all share (assay): DTP human tumour cell line panel, 48 h

Turning to `Cc1cc(N(CCC#N)S(C)(=O)=O)ccc1C=O`, the TGI in the test on M14 melanoma, with U251 CNS, in the test on SK-OV-3 ovarian, in the test on LXFL 529 NSCLC, with COLO 205 colon and in the test with OVCAR-5 ovarian was greater than 100 µM in each case. The compound further registered a TGI with HOP-62 NSCLC greater than 100 µM.
Take `C=C/C=C(\NC(=O)C(Cl)(Cl)Cl)[Si](C)(C)C`: the TGI with M14 melanoma, in the test on M19-MEL melanoma, with HOP-92 NSCLC, in the test with U251 CNS, in the test on SK-OV-3 ovarian and in the test on LXFL 529 NSCLC was greater than 100 µM in each case. In addition, the TGI with COLO 205 colon, in the test on OVCAR-5 ovarian and in the test with HOP-62 NSCLC was greater than 100 µM in each case.
For the compound `NC(N)=NS(=O)(=O)c1ccc(NCc2c3ccccc3nc3ccccc23)cc1`, the TGI is 64.7 µM in the test with M14 melanoma; greater than 100 µM with M19-MEL melanoma; 9.01 µM with HOP-92 NSCLC; 10.9 µM in the test on U251 CNS; 27.3 µM in the test on SK-OV-3 ovarian; 44.3 µM with LXFL 529 NSCLC. Besides, the concentration for total growth inhibition (TGI) was greater than 100 µM with COLO 205 colon, greater than 100 µM in the test on OVCAR-5 ovarian and 5.92 µM in the test with HOP-62 NSCLC.
As to `COc1ccc2oc3c4c2c1CCC4CCC3=O` (stereo not drawn), the concentration for total growth inhibition (TGI) in the test on M14 melanoma, in the test on M19-MEL melanoma, in the test with HOP-92 NSCLC, in the test with U251 CNS, in the test with SK-OV-3 ovarian and in the test with LXFL 529 NSCLC was greater than 100 µM throughout. Further, the TGI with COLO 205 colon, with OVCAR-5 ovarian and in the test on HOP-62 NSCLC was greater than 100 µM throughout.
For the compound `Cc1ccc(-c2nc(SCC(=O)O)n[nH]2)cc1`, the TGI in the test with M14 melanoma, in the test on M19-MEL melanoma, in the test on HOP-92 NSCLC, in the test with U251 CNS, in the test on SK-OV-3 ovarian and in the test on LXFL 529 NSCLC was greater than 100 µM each time. Further, the TGI in the test on COLO 205 colon, in the test with OVCAR-5 ovarian and in the test with HOP-62 NSCLC was greater than 100 µM each time.
As for `CCC[CH2][Sn]([CH2]CCC)([O]C(=O)c1cc(F)cc(F)c1)[O]C(=O)c1cc(F)cc(F)c1`, the GI50 in the test with M14 melanoma is 1.36 µM; in the test with M19-MEL melanoma it was 0.514 µM; with HOP-92 NSCLC it was 1.24 µM; in the test with U251 CNS, 0.615 µM; with SK-OV-3 ovarian, 2.45 µM; in the test with LXFL 529 NSCLC it was 0.171 µM. The values for the GI50 with COLO 205 colon, in the test on OVCAR-5 ovarian and in the test with HOP-62 NSCLC were 0.841 µM, 1.6 µM and 2.39 µM, respectively. For the same compound, the TGI in the test on M14 melanoma was found to be 2.67 µM; in the test on M19-MEL melanoma, 1.74 µM; in the test with HOP-92 NSCLC, 2.49 µM; in the test with U251 CNS, 1.85 µM; with SK-OV-3 ovarian, 5.45 µM; in the test with LXFL 529 NSCLC, 0.607 µM. In addition, the TGI in the test on COLO 205 colon is 2.05 µM; in the test on OVCAR-5 ovarian, 2.96 µM; in the test on HOP-62 NSCLC it was 4.19 µM.
As for `Cn1c2c(c3ccccc31)C1CCCCC1C1C(=O)NC(=O)C21` (stereo not drawn), the TGI with M14 melanoma, in the test with M19-MEL melanoma, in the test with U251 CNS, in the test with SK-OV-3 ovarian, in the test with LXFL 529 NSCLC and with COLO 205 colon was greater than 100 µM in each case. The compound further yielded a TGI with OVCAR-5 ovarian greater than 100 µM.
Turning to `CN(C)c1ccc(C(=C2C=CC(=[N+](C)C)C=C2)c2ccc(N(C)C)cc2)cc1` (tested in a mixture with another compound), the GI50 with NCI/ADR-RES ovarian is 0.912 µM; in the test on M14 melanoma, 0.088 µM; with COLO 205 colon, 0.0232 µM; with OVCAR-5 ovarian, 0.559 µM; in the test on HOP-62 NSCLC, 0.0446 µM. In addition, the TGI in the test with HOP-92 NSCLC came to 0.714 µM; with U251 CNS it was 1.34 µM; in the test on SK-OV-3 ovarian it was 0.933 µM; in the test on COLO 205 colon it was 0.0519 µM; in the test on OVCAR-5 ovarian it was 1.77 µM; in the test on HOP-62 NSCLC, 1.29 µM.
For `O=C1OCC(c2cccs2)=C1Cl`, the GI50 is 48.1 µM in the test on NCI/ADR-RES ovarian; greater than 100 µM with M14 melanoma; 54.5 µM in the test with HOP-92 NSCLC; 52.9 µM with U251 CNS; greater than 100 µM in the test with SK-OV-3 ovarian; 32.2 µM in the test on COLO 205 colon. Also, the results for the GI50 in the test on OVCAR-5 ovarian and in the test with HOP-62 NSCLC were 76.7 µM and greater than 100 µM, respectively. The TGI in the test with NCI/ADR-RES ovarian, in the test with M14 melanoma, in the test with HOP-92 NSCLC, in the test on U251 CNS, with SK-OV-3 ovarian and in the test with COLO 205 colon was greater than 100 µM throughout. In addition, the TGI with OVCAR-5 ovarian and with HOP-62 NSCLC was greater than 100 µM each time.
As for `CC(=O)c1c(C(F)(F)F)n([O-])c2ccc(Cl)cc2[n+]1=O`, the GI50 is 3.4 µM with NCI/ADR-RES ovarian; 1.78 µM in the test on M14 melanoma; 1.23 µM with HOP-92 NSCLC; 0.772 µM in the test on U251 CNS; 6.65 µM in the test on SK-OV-3 ovarian; 1.77 µM in the test with COLO 205 colon. The GI50 in the test with OVCAR-5 ovarian was 2.74 µM; with HOP-62 NSCLC it was 0.49 µM. Further, the TGI in the test on NCI/ADR-RES ovarian was greater than 23.1 µM; in the test with M14 melanoma, 5.05 µM; in the test on HOP-92 NSCLC, 2.9 µM; in the test on U251 CNS, 4.89 µM; in the test on SK-OV-3 ovarian it was 19.9 µM; in the test on OVCAR-5 ovarian, 18.6 µM. This compound came in with a TGI in the test with HOP-62 NSCLC of 1.86 µM.
`CCN(CC)CCCNc1cccc2c(SCc3ccccc3)ccnc12`: the GI50 in the test with NCI/ADR-RES ovarian is 1.96 µM; in the test on M14 melanoma, 1.96 µM; with HOP-92 NSCLC, 2.18 µM; in the test with U251 CNS, 1.69 µM; in the test with SK-OV-3 ovarian, 2.02 µM; with COLO 205 colon, 1.84 µM. Besides, the GI50 in the test with OVCAR-5 ovarian is 2 µM; in the test with HOP-62 NSCLC, 1.61 µM. Besides, the TGI in the test with NCI/ADR-RES ovarian was determined as 5.6 µM; in the test with M14 melanoma, 3.6 µM; with HOP-92 NSCLC it was 7.32 µM; in the test on U251 CNS, 3.25 µM; in the test on SK-OV-3 ovarian, 4.51 µM; in the test with COLO 205 colon it was 3.44 µM. The total growth inhibition concentration (TGI) in the test on OVCAR-5 ovarian is 3.76 µM; in the test on HOP-62 NSCLC, 3.05 µM.
For the compound `COc1ccc(/C=C2\CCCCC2=O)cc1`, the TGI with M14 melanoma, with M19-MEL melanoma, in the test on U251 CNS, in the test on SK-OV-3 ovarian, in the test with LXFL 529 NSCLC and with COLO 205 colon was greater than 100 µM throughout. In the test with HOP-62 NSCLC, this compound returned a TGI greater than 100 µM.

The record behind these values is PubChem BioAssay (NCI).
